For this assay, the target named is TBK1 (Homo sapiens (Human), UniProt Q9UHD2). The assay is described as follows: TBK1 low ATP kinase assay (in vitro assay 1). Format: biochemical. The note with it: in vitro assay 1, read-out: TBK1 low ATP kinase assay IC50.

Structures are written as SMILES.

For ten molecules, IC50 results are on record in patent US10894784B2, “Heteroarylbenzimidazole compounds” (BAYER PHARMA AKTIENGESELLSCHAFT, priority 2015, dated 2021).

TBK1, sequence (Q9UHD2 whole entry): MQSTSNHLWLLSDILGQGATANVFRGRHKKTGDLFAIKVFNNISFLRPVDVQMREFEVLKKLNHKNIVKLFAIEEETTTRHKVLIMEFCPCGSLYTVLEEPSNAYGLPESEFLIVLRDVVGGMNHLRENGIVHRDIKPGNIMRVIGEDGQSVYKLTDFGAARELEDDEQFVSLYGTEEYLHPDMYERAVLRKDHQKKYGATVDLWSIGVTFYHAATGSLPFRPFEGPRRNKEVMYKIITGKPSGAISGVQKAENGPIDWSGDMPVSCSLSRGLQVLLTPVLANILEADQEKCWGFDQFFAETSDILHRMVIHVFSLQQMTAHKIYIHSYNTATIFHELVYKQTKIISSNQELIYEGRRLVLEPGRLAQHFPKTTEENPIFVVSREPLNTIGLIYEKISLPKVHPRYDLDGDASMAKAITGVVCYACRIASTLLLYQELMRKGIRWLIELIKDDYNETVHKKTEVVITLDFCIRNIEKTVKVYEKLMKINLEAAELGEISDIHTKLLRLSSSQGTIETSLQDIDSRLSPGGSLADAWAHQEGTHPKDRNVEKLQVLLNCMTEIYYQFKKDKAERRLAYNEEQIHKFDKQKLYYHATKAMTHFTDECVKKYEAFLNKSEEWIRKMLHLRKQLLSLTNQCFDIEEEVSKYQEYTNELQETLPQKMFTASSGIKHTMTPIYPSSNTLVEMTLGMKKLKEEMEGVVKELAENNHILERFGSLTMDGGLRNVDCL

As for `CC(c1ccnc(Nc2nc3ccc(-c4cnn(CC5CC5)c4)c(F)c3[nH]2)c1)N1CCN(C(=O)CC(F)(F)F)CC1` (single isomer, unassigned) [Example 121.02], the IC50 (in general, the concentration that gives 50% inhibition) amounted to 2.5 nM.

Regarding `CC(c1ccnc(Nc2nc3ccc(-c4cnn(CC5CCC5)c4)c(Cl)c3[nH]2)c1)N1CCN(C(=O)CC(F)(F)F)CC1` (single isomer, unassigned) [Example 75.02, 1-(4-{(1R or 1S)-1-[2-({7-chloro-6-[1-(cyclobutylmethyl)-1H-pyrazol-4-yl]-1H-benzimidazol-2-yl}amino)pyridin-4-yl]ethyl}piperazin-1-yl)-3,3,3-trifluoropropan-1-one], the half-maximal inhibitory concentration (IC50) turned out to be 1.4 nM.

As to `Cc1nccc(-c2ccc3nc(Nc4cc(C(C)N5CCN(C(=O)C6CC6)CC5)ccn4)[nH]c3c2)n1` (single isomer, unassigned) [Example 24.05.04.A, cyclopropyl{4-[(1R or 1S)-1-(2-{[6-(2-methylpyrimidin-4-yl)-1H-benzimidazol-2-yl]amino}pyridin-4-yl)ethyl]piperazin-1-yl}methanone], the 50% inhibitory concentration (IC50) turned out to be 6.67 nM. With `COc1cncnc1-c1ccc2nc(Nc3cc(CN4CCN(C(=O)N5CCCC5)CC4)ccn3)[nH]c2c1` [Example 35.01.05, {4-[(2-{[6-(5-methoxypyrimidin-4-yl)-1H-benzimidazol-2-yl]amino}pyridin-4-yl)methyl]piperazin-1-yl}(pyrrolidin-1-yl)methanone] the figure was 48 nM; with `O=C(CC(F)(F)F)N1CCN(Cc2ccnc(Nc3nc4ccc(-c5ncnc(NCC6CCC6)c5F)cc4[nH]3)c2)CC1` [Example 191.02, 1-[4-({2-[(6-{6-[(cyclobutylmethyl)amino]-5-fluoropyrimidin-4-yl}-1H-benzimidazol-2-yl)amino]pyridin-4-yl}methyl)piperazin-1-yl]-3,3,3-trifluoropropan-1-one], 95.3 nM. For the molecule `COc1cnccc1-c1ccc2nc(Nc3cc(CN4CCN(C(=O)C5CC5)CC4)ccn3)[nH]c2c1` [Example 04.03, cyclopropyl{4-[(2-{[6-(3-methoxypyridin-4-yl)-1H-benzimidazol-2-yl]amino}pyridin-4-yl)methyl]piperazin-1-yl}methanone], the IC50 amounted to 19.3 nM.

With `COc1cc(-c2ccc3nc(Nc4cc(CN5CCN(C(=O)C6CCC6)CC5)ccn4)[nH]c3c2)ccn1` [Example 02.04, cyclobutyl{4-[(2-{[6-(2-methoxypyridin-4-yl)-1H-benzimidazol-2-yl]amino}pyridin-4-yl)methyl]piperazin-1-yl}methanone], the IC50 amounted to 43.4 nM.

For `O=C(CC(F)(F)F)N1CCN(Cc2ccnc(Nc3nc4ccc(-c5cc(N6CCOCC6)ncn5)cc4[nH]3)c2)CC1` [Example 94.01, 3,3,3-trifluoro-1-(4-{[2-({6-[6-(morpholin-4-yl)pyrimidin-4-yl]-1H-benzimidazol-2-yl}amino)pyridin-4-yl]methyl}piperazin-1-yl)propan-1-one], the IC50 turned out to be 7.2 nM. As for `Cc1nccc(-c2ccc3nc(Nc4cc(C(C)N5CCN(C(=O)C6CCC6)CC5)ccn4)[nH]c3c2)n1` (single isomer, unassigned) [Example 24.05.02.A, cyclobutyl{4-[(1R or 1S)-1-(2-{[6-(2-methylpyrimidin-4-yl)-1H-benzimidazol-2-yl]amino}pyridin-4-yl)ethyl]piperazin-1-yl}methanone], the IC50 turned out to be 11 nM.

As for `COc1c(-c2ccc3nc(Nc4cc(C(C)N5CCN(C(=O)CC(F)(F)F)CC5)ccn4)[nH]c3c2)ncnc1N(C)C` (single isomer, unassigned) [Example 107.02.03, 1-(4-{(1R or 1S)-1-[2-({6-[6-(dimethylamino)-5-methoxypyrimidin-4-yl]-1H-benzimidazol-2-yl}amino)pyridin-4-yl]ethyl}piperazin-1-yl)-3,3,3-trifluoropropan-1-one], the IC50 is 5.4 nM.
